Ends that are not written are not given here.
Legend:
[1] = Caco-2 cell monolayer permeation (transepithelial transport); type: in vitro ADME; conditions: human, Caco-2, 21-day, transwell, apical to basolateral, HBSS 25 mM HEPES pH 7.4, 37°C, time point 120 min, UHPLC-MS/MS, means ± S.D.
Method: (§1) The colorectal adenocarcinoma (Caco-2) cell line was purchased from ATCC (Rockville, MD, USA). Cells were maintained in high-glucose DMEM (4.5 g/L) supplemented with 2 mM L-glutamine and 10% (v/v) heat-inactivated foetal bovine serum. Cells were cultured at 37°C in a humidified 5% CO2 atmosphere. To induce enterocytic Caco-2 differentiation, cells were seeded in a 12-well multiwell in transwell inserts (PET membrane, 0.4 μm pore size, 1.12 cm^2 surface area) at 2.6 × 10^5 cells/cm^2 and maintained for 21 days in complete medium. The medium was changed every second day. By 21 days, the monolayers become completely differentiated.
(§2) The integrity of the monolayers was evaluated by measurement of the transepithelial electrical resistance (TEER) using an EVOM2 epithelial voltohmmeter (World Precision Instruments, Sarasota, FL, USA). Only monolayers showing TEER higher than 300 Ω × cm^2 were then used for transport experiments. The integrity of the monolayers was checked before, during, and after the experiment. The filters were washed for 15-20 min at 37°C adding prewarmed Hank's balanced salt solution buffered with 25 mM HEPES and NaHCO3 (0.35 g/L) at pH 7.4 to the apical (0.4 mL) and to the basolateral (1.2 mL) transwell compartments, as previously described. For transport experiments, donor solution containing BRP2 peptide at the desired concentration (100-1 μM) was added to the apical compartment for the apical to basolateral (absorptive) direction. Samples from the receiving compartment were collected at different time points up to 120 min (15, 30, 60, 90, and 120 min). Samples from the donor compartment were collected at time 0 and at the end of the experiment (120 min) for the calculation of the mass balance.
(§3) Samples were stored at −20°C until UHPLC-MS/MS analyses to measure the concentration of BRP2 in both compartments (for detailed conditions, see Supporting Information ).
(§4) The apparent permeability coefficient (Papp) was calculated as described according to (1) Papp=dMR^t/dt×1/A×CD0, where MR is the amount of substance in the receiver chamber, A (cm^2) is the surface area of the barrier, and CD0 (μM) is the initial donor concentration. The reduction in donor concentration was also taken after every sampling (see Supporting Information ).
(§5) Instead, for the quantification of BRP2 in donor and receiver chamber, the stock solution was diluted with fresh HBSS to a series of concentrations ranged of 125-0.5 nM to establish the calibration curve (y = 0.000001x – 0,000363; R^2 ≥ 0.9997).
(§6) The apparent permeability values of BRP2 were calculated according to the Eq. 1. This calculation requires that the sink conditions are fulfilled, that is, the ratio CR/CD is less than 0.1 at each sampling point used in the analysis. […] The donor concentration was recalculated by subtracting the cumulative amount transported to the receiver chamber for each time interval:
(§7) CD (ti) and CR (ti) (μM): donor and receiver chamber concentrations calculated at each sample occasion (i) from the donor and receiver concentrations at the previous occasion CD (ti–1) and CR (ti–1), respectively; f=1–VS/VR: sample replacement diluition factor; VS (cm^3): sample volume; VR (cm^3): receiver chamber volume; VD (cm^3): donor chamber volume. ^[28]
(§8) recovery (%) = (CD(fin) × VD +∑ (CS(t) × VS(t)) + CR(fin) × VR(fin)) × 100 / (CD(0) × VD(0)) […]

[2] = test system: Caco-2 cell monolayer; experiment: as above; type: in vitro ADME; conditions: UHPLC-MS/MS
Method: as §1, §2, §3, §4, §5, §6, §7, §8

[3] = test system: Caco-2 cell monolayer; experiment: Immunofluorescence of Caco-2 monolayers after transport (zonulin-1, integrity); type: cell-based; conditions: after transport studies, all the concentrations tested
Method: The transwell membranes from TEER experiments were washed with PBS and fixed with 4% paraformaldehyde (PFA) for 15 min. Membranes were then washed in PBS and blocked with blocking solution (0.1% Triton, 1% BSA, 0.02% sodium azide, and 50 mM ammonium chloride) for 20 min at room temperature in the dark. Afterwards, they were incubated with an anti-zonulin 1 antibody (#402200, Invitrogen, Thermo Fisher Scientific, Waltham, MA, USA) at the final concentration of 2 μg mL^−1 at room temperature for 2 hours. Immunofluorescence staining was obtained by incubating the membranes for 90 min with Alexa Fluor 488 donkey anti-rabbit IgG (#A31573) at the final concentration of 4 μg mL^−1 (Invitrogen). The nuclei were counterstained with DAPI (1 : 2000). Membranes were cut down with an operating knife blade along the margin of the chamber and were mounted on slides using VectaMount solution (AQ Vector Laboratories, Burlingame, CA, USA). Slides were examined under a Nikon fluorescence inverted microscope (Nikon Instruments Europe, Firenze, Italy) and then analyzed through ImageJ software as previously described.
Figure S3: Fluorescence micrograph of the Caco-2 cell monolayers. Caco-2 cell monolayers treated with BRP2 (50 µM, 2 h) from TEER experiments were stained for tight junction protein expression of zonulin-1 (FITC, green). Nuclei were counterstained with DAPI (blue). […]

Papp A→B at 120 min, 1 μM ([1]; BRP2 1 μM): 0.53 ± 0.15 ×10⁻⁶ cm/s
Papp A→B at 120 min, 50 μM ([1]; BRP2 50 μM): 0.2 ± 0.05 ×10⁻⁶ cm/s
Papp A→B at 120 min, 100 μM ([1]; BRP2 100 μM): 0.27 ± 0.07 ×10⁻⁶ cm/s
Papp ([2]; BRP2 10 μM, Caco-2, 21-day, transwell, apical to basolateral, HBSS 25 mM HEPES pH 7.4, 37°C, time point 120 min, means ± S.D.): 0.53 ± 0.01 10^-6 cm/s
mass balance (recovery) ([2]; Caco-2 transport, donor sampled at 0 and 120 min): more than 80%
Caco-2 cell monolayer integrity (zonulin-1 expression) [3]: preserved
Substance: SFNPTQL [BRP2, Ser-Phe-Asn-Pro-Thr-Gln-Leu]

Source: paper PMC6877959, “β-Lactoglobulin Heptapeptide Reduces Oxidative Stress in Intestinal Epithelial Cells and Angiotensin II-Induced Vasoconstriction on Mouse Mesenteric Arteries by Induction of Nuclear Factor Erythroid 2-Related Factor 2 (Nrf2) Translocation” (Oxidative Medicine and Cellular Longevity, 2019)
